According to patent US20090099502A1, “Microneedle Device And Transdermal Administration Device Provided With Microneedles” (HISAMITSU PHARMACEUTICAL CO., INC., priority 2006, published 2009):
Entries after “also recorded” stand apart in the source; their conditions may differ. Structures can show the parent of a compound that is named as a salt.

Columns and labels:
hairless rat skin [1] = system: hairless rat skin
Excerpt: (§1) A piece of foam tape (#9773, 7.84 cm^2) of 3M Company was pasted on the back side of the microneedle substrate in such a way that the adhesive layer of the tape would face the skin. The projecting ends of the tape were attached to the skin to bring the microneedle side of the microneedle substrate in close contact with the skin. To start the experiment, the microneedle substrate was placed on the skin and pressure applied (2 kg/patch for 5 seconds) on the substrate with a finger.
(§2) Microneedles (800 piles/patch) were coated all over their surfaces with 30 μl/patch one of the coating carriers, and dried at room temperature for 12 h for fixing. Skin removed from hairless rats was pierced with microneedles coated with the drug formulations, including those having their free forms, and samples were removed periodically. Phosphate buffer solution (PBS) was used for the receptor layer. The receptor solution sample, sampled at different time points, and acetonitrile were mixed at 1:1 ratio, stirred, centrifuged (15,000 rpm, 5° C., 5 minutes), then the supernatant was recovered, and its drug content measured by HPLC.
Animal species: Hairless rat (n=3)

hairless rat skin [2] = test: Skin permeation tests with a drug in its free and salt forms using hairless rats (Example 7); settings: both the fumarate and the free form, PVA117 coating
Excerpt: as §1, §2
Animal species: Hairless rat (n=3)

hairless rat skin [3] = test: Skin permeation test of granisetron hydrochloride, blister-type drug product (Example 5); assay type: in vitro ADME; settings: in examples 4 and 5
Protocol: In this experiment, the coating carrier was prepared for the entire surface of microneedles by using only 5 wt. % polyvinyl alcohol (PVA117), and the microneedles (800 pile/patch) were coated all over the surface with 30 μl/patch and dried for 12 h at room temperature for fixing. After piercing the skin with the microneedles, […] 32 wt. % aqueous solution of granisetron hydrochloride, 30 μl, was applied through the through-holes (openings) on the microneedle substrate. There were two control groups. In one of these, the microneedles were not given any coating and 30 μl of the drug solution alone was applied through the through-holes. In the other control group, an aqueous solution containing 5 wt. % of polyvinyl alcohol and 32 wt. % of granisetron hydrochloride was prepared, as before, as the coating carrier, and the microneedles (800 piles/patch) were coated all over the surface with 15 μl/patch of this coating carrier.
Skin was then removed from the trunk of a hairless rat and fitted to a vertical acrylic cell (2.54 cm^2) with the dermis side facing the receptor layer, and the whole assembly was placed in a constant temperature chamber set at 37° C. […] The drug content of the receptor solution obtained at each time of sampling was measured by HPLC (Excitation: 298 nm, fluorescence: 353 nm). […]

[4] = whether in the free or the salt form; cited from earlier work

| maximum flux, Free form (hairless rat skin [1]; hairless, rat, 16 wt. %) | maximum flux, Salt (hairless rat skin [1]; hairless, rat, 16 wt. %) | skin permeability (hairless rat skin [2]) | skin permeability (hairless rat skin [3]) | amount of drug permeation (hairless rat skin [1]; hairless, rat, 16 wt. %) | SMILES | maximum flux, salt form compared with free form (hairless rat skin [1]) | solubility in water [4] |
| --- | --- | --- | --- | --- | --- | --- | --- |
| 100 μg/cm^2/hr | 180 μg/cm^2/hr | – | – | – | CCCN[C@H]1CCc2nc(N)sc2C1 [Pramipexol, pramipexol] | higher maximum flux in their salt form than in their free form | – |
| 60 μg/cm^2/hr | 90 μg/cm^2/hr | good skin permeability | – | – | CC(C)NCC(O)COc1ccc(COCCOC(C)C)cc1 (stereo not drawn) [Bisoprolol, bisoprolol] | higher maximum flux in their salt form than in their free form | – |
| – | – | – | good skin permeability | – | CN1C2CCCC1CC(NC(=O)c1nn(C)c3ccccc13)C2 (stereo not drawn) [granisetron hydrochloride] | – | – |
| 0.1< μg/cm^2/hr | 0.1< μg/cm^2/hr | – | – | about 1 μg | CCCN1C[C@H](CSC)C[C@@H]2c3cccc4[nH]cc(c34)C[C@H]21 [Pergolide, pergolide] | – | almost no solubility in water; also recorded: extremely low solubility |
